How the values were obtained:
A2780 cells = experiment: SRB assay on A2780 cells; type: cell-based; conditions: maximal inhibition; 48 h treatment; maximum concentration 100 µM
Procedure: For MTT assays, 4 × 10^3 A2780 cells were plated into 96-well plates, and for SRB assays, 1.5 × 10^3 A2780 cells were plated into 96-well plates. Cells were treated with the compounds in the concentrations indicated for either 4 h for an MTT assay or for 48 h for an SRB assay. Data are represented as average ± SD, from four biological replicates, with the exception of the MTT dataset of Ir-2b and the SRB datasets of 2b, Ru/Ir-2b, and Ir-3a, which were derived from three biological replicates. Individual assays were performed in duplicate. Values were normalized for vehicle-treated cells, and the absorbance for vehicle-treated cells equals 1. Data are represented as fold change compared to vehicle-treated controls. Normality was assessed using the D’Agostino–Pearson test. Statistical significance was assessed using a two-way ANOVA test followed by Tukey’s post hoc test. For better visibility, normality, transformations, statistical tests, and p values are presented in an MS Excel sheet at https://figshare.com/s/3a0aa60b66f3f746f41e. Color code: black—free ligand (2a,b or 3a), khaki—ruthenium complex (Ru-2a,b or Ru-3a), green—iridium complex (Ir-2a,b or Ir-3a).  FIGURE 7 The ruthenium, osmium, and iridium complexes of ligands 4a, 4b, and 5a are cytostatic on ovarian cancer models with a good therapeutic index. For SRB assays, 1.5 × 10^3 A2780 cells, 1.5 × 10^3 ID8 cells, or 4 × 10^3 primary fibroblasts were plated into 96-well plates. Cells were treated with the compounds in the concentrations indicated for 48 h. Data are represented as average ± SD, from four biological replicates on A2780 and human primary fibroblasts, except in the case of Os complexes, where experiments were performed in three biological replicates. ID8 cells were assessed in three biological replicates. Individual assays were performed in duplicate. Values were normalized for vehicle-treated cells, and the absorbance for vehicle-treated cells equals 1. Normality was assessed using the D’Agostino–Pearson test. Statistical significance was assessed using a two-way ANOVA test followed by Tukey’s post hoc test. For better visibility, normality, transformations, statistical tests, and p values are presented in an MS Excel sheet at https://figshare.com/s/3a0aa60b66f3f746f41e. Color code: black—free ligand (4a,b or 5a), khaki—ruthenium complex (Ru-4a,b), blue—osmium complex (Os-4a,b or Os-5a), green—iridium complex (Ir-4a,b), and red—rhodium complex (Rh-4a,b). An SRB assay measures protein content of cells in correlation with the cell number in an assay well and can therefore be used to assess cell proliferation or long-term cytostasis ([Skehan et al., 1990]). Cells were seeded into 96-well plates the day before the treatment for the assay. Cells were treated with the various compounds for 48 h. Then, the medium was removed, and cells were fixed with 10% trichloroacetic acid. Fixed cells were washed in distilled water three times, followed by staining with SRB (0.4 m/V% dissolved in 1% acetic acid) for 10 min. Stained cells were washed in 1% acetic acid five times; the acetic acid was removed, and the cells were left to dry. Protein-bound SRB was released by adding 100 µL of 10 mM Tris base. Plates were measured in a plate photometer (Thermo Scientific Multiscan GO spectrophotometer, Waltham, MA, United States) at 540 nm. Certain wells were designated to contain vehicle-treated cells on each plate. […] Statistical analysis was performed using version 8.0.1 of GraphPad Prism. Values were tested for normal distribution using the D’Agostino–Pearson or Shapiro–Wilk normality tests. When necessary, values were log-normalized or normalized using the Box–Cox or two-step normalization method ([Box and Cox, 1964]), as indicated in the MS Excel file listing the values at https://figshare.com/s/3a0aa60b66f3f746f41e. […]

ID8 cells = experiment: SRB assay on ID8 cells; type: cell-based; conditions: maximal inhibition; 48 h treatment; maximum concentration 100 µM
Procedure: FIGURE 7 The ruthenium, osmium, and iridium complexes of ligands 4a, 4b, and 5a are cytostatic on ovarian cancer models with a good therapeutic index. For SRB assays, 1.5 × 10^3 A2780 cells, 1.5 × 10^3 ID8 cells, or 4 × 10^3 primary fibroblasts were plated into 96-well plates. Cells were treated with the compounds in the concentrations indicated for 48 h. Data are represented as average ± SD, from four biological replicates on A2780 and human primary fibroblasts, except in the case of Os complexes, where experiments were performed in three biological replicates. ID8 cells were assessed in three biological replicates. Individual assays were performed in duplicate. Values were normalized for vehicle-treated cells, and the absorbance for vehicle-treated cells equals 1. Normality was assessed using the D’Agostino–Pearson test. Statistical significance was assessed using a two-way ANOVA test followed by Tukey’s post hoc test. For better visibility, normality, transformations, statistical tests, and p values are presented in an MS Excel sheet at https://figshare.com/s/3a0aa60b66f3f746f41e. Color code: black—free ligand (4a,b or 5a), khaki—ruthenium complex (Ru-4a,b), blue—osmium complex (Os-4a,b or Os-5a), green—iridium complex (Ir-4a,b), and red—rhodium complex (Rh-4a,b). An SRB assay measures protein content of cells in correlation with the cell number in an assay well and can therefore be used to assess cell proliferation or long-term cytostasis ([Skehan et al., 1990]). Cells were seeded into 96-well plates the day before the treatment for the assay. Cells were treated with the various compounds for 48 h. Then, the medium was removed, and cells were fixed with 10% trichloroacetic acid. Fixed cells were washed in distilled water three times, followed by staining with SRB (0.4 m/V% dissolved in 1% acetic acid) for 10 min. Stained cells were washed in 1% acetic acid five times; the acetic acid was removed, and the cells were left to dry. […] Plates were measured in a plate photometer (Thermo Scientific Multiscan GO spectrophotometer, Waltham, MA, United States) at 540 nm. […]

Row | Structure (SMILES) | A2780 SRB max % (A2780 cells) [%] | ID8 SRB max % (ID8 cells) [%]
1 | OC[C@H]1O[C@H](n2cc(-c3ccccn3)nn2)[C@H](O)[C@@H](O)[C@@H]1O [Complex 3a, 1-(α-D-Glucopyranosyl)-4-(pyridin-2-yl)-1,2,3-triazole] | 0 | –
2 | O=C(OC[C@H]1O[C@H](n2cc(-c3ccccn3)nn2)[C@H](OC(=O)c2ccccc2)[C@@H](OC(=O)c2ccccc2)[C@@H]1OC(=O)c1ccccc1)c1ccccc1 [Complex 4a, 1-(2’,3’,4’,6’-Tetra-O-benzoyl-α-D-glucopyranosyl)-4-(pyridin-2-yl)-1,2,3-triazole] | 29.51 | 0
3 | O=C(OC[C@H]1O[C@H](n2cc(-c3ccc4ccccc4n3)nn2)[C@H](OC(=O)c2ccccc2)[C@@H](OC(=O)c2ccccc2)[C@@H]1OC(=O)c1ccccc1)c1ccccc1 [Complex 4b, 1-(2’,3’,4’,6’-Tetra-O-benzoyl-α-D-glucopyranosyl)-4-(quinolin-2-yl)-1,2,3-triazole] | 0 | 0
4 | CCCCC(=O)OC[C@H]1O[C@H](n2cc(-c3ccccn3)nn2)[C@H](OC(=O)CCCC)[C@@H](OC(=O)CCCC)[C@@H]1OC(=O)CCCC [Complex 5a, 1-(2’,3’,4’,6’-Tetra-O-pentanoyl-α-D-glucopyranosyl)-4-(pyridin-2-yl)-1,2,3-triazole] | 33.92 | 0

Reference: publication PMC12434071, “Platinum-group metal half-sandwich complexes of 1-(α-D-glucopyranosyl)-4-hetaryl-1,2,3-triazoles: synthesis, solution equilibrium studies, and investigation of their anticancer and antimicrobial activities” (Frontiers in Chemistry, 2025)
